The record followed here is ChEMBL document CHEMBL4616676, “Synthesis and Biological Activity of 2,22-Dimethylene Analogues of 19-Norcalcitriol and Related Compounds” (J Med Chem, 2020).

Assay [1] relates to Rattus norvegicus. Kind of assay: Induction of bone calcium mobilization in vitamin D-deficient Sprague-Dawley rat assessed as serum calcium level at 780 pmol, ip administered as 4 consecutive daily doses measured after 24 hrs post last dose by spectrometry relative to 1alpha,25-(OH)2D3. The class given is functional, organism-based.
Assay [2] has as its system Rattus norvegicus. Kind of assay: Induction of bone calcium mobilization in vitamin D-deficient Sprague-Dawley rat assessed as serum calcium level at 87 pmol, ip administered as 4 consecutive daily doses measured after 24 hrs post last dose by spectrometry relative to 1alpha,25-(OH)2D3. The class given is functional, organism-based.
Assay [3] has as its target T1, Vitamin D3 receptor (Rattus norvegicus) (UniProt P13053).
T1 sequence (whole entry): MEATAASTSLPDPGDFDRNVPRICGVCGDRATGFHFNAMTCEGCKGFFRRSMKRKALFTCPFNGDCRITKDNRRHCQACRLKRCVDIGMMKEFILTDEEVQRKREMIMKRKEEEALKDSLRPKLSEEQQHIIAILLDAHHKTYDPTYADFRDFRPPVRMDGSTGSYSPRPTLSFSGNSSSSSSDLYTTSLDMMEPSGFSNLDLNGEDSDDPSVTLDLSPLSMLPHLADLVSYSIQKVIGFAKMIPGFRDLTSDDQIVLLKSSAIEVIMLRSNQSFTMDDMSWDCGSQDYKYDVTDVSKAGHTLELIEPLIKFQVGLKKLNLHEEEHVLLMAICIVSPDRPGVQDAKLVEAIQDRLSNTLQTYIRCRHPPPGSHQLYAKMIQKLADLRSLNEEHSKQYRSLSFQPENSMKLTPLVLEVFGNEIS
Kind of assay: Potency index, ratio of ED50 for 1-alpha,25-(OH)2D3 to ED50 for test compound for agonist activity at rat recombinant full length VDR expressed in rat ROS 17/2.8 cells transfected with 24-hydroxylase gene promoter assessed as transcriptional activation after 16 hrs by luciferase reporter gene assay. The class given is cell-based.

The target in assay [4] is T1, Vitamin D3 receptor (Rattus norvegicus). Kind of assay: Potency index, ratio of Ki for 1-alpha,25-(OH)2D3 to Ki for test compound for displacement of [3H]1-alpha,25-(OH)2D3 from rat recombinant full length VDR. (In a radioligand displacement assay an active substance lowers the binding of a labelled ligand.)
For assay [5], the target named is T2, Vitamin D3 receptor (Homo sapiens) (UniProt P11473).
T2 sequence (whole entry): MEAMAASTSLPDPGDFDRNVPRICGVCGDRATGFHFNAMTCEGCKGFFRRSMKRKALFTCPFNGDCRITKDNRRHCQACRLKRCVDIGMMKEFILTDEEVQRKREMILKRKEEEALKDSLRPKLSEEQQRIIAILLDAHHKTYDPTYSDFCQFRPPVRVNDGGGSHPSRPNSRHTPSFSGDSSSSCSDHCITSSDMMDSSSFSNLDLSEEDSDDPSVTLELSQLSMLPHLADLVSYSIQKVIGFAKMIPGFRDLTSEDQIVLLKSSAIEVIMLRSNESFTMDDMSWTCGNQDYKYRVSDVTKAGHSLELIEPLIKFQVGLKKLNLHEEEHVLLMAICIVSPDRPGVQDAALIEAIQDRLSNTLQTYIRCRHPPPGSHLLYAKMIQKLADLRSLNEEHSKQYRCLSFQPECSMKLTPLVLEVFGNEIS
Kind of assay: Potency index, ratio of ED50 for 1-alpha,25-(OH)2D3 to ED50 for test compound for agonist activity at VDR in human HL60 cells assessed as induction of cell differentiation of promyelocytes to monocytes after 4 days by NBT reduction assay. Particulars: HL-60. The class given is cell-based.

The test system of assay [6] is Rattus norvegicus. Briefly: Induction of intestinal calcium transport in vitamin D-deficient Sprague-Dawley rat assessed as ratio of serosal to mucosal calcium level at 87 pmol, ip administered as 4 consecutive daily doses measured after 24 hrs post last dose by gut sac assay relative to 1alpha,25-(OH)2D3. The class given is functional, organism-based.
For assay [7], the system named is Rattus norvegicus. Kind of assay: Induction of intestinal calcium transport in vitamin D-deficient Sprague-Dawley rat assessed as ratio of serosal to mucosal calcium level at 780 pmol, ip administered as 4 consecutive daily doses measured after 24 hrs post last dose by gut sac assay relative to 1alpha,25-(OH)2D3. The class given is functional, organism-based.

Active and inactive are the calls of the source. The rule behind the calls is not given here.

With `C=C1[C@H](O)CC(=C/C=C2\CCC[C@]3(C)[C@@H]([C@@H](C)C(=C)CCC(C)(C)O)CC[C@@H]23)C[C@H]1O`, the outcome with Rattus norvegicus [1], in the assay with Rattus norvegicus [2], in the assay with Rattus norvegicus [6] and in the assay with Rattus norvegicus [7] was Active. The Ratio ED50 in assay [3] worked out at 2.5; in assay [5], 4. The Ratio Ki in assay [4] was 0.5.
`C=C1[C@H](O)CC(=C/C=C2\CCC[C@]3(C)[C@@H]([C@@H](C)C(=C)CCC4(O)CCCC4)CC[C@@H]23)C[C@H]1O`: the outcome in the assay with Rattus norvegicus [1], in the assay on Rattus norvegicus [2], in the assay on Rattus norvegicus [6] and with Rattus norvegicus [7] was Active. Moreover, the Ratio ED50 in assay [3] was found to be 20; in assay [5], 29. In addition, the Ratio Ki in assay [4] worked out at 1.
Regarding `C=C1[C@H](O)CC(=C/C=C2\CCC[C@]3(C)[C@@H]([C@@H](C)C(=C)CCC(C)C)CC[C@@H]23)C[C@H]1O`, the result with Rattus norvegicus [1], with Rattus norvegicus [2], in the assay on Rattus norvegicus [6] and with Rattus norvegicus [7] was Active. Also, the values for the Ratio ED50 in assay [3] and in assay [5] were 0.05 and 0.1, respectively. Moreover, in assay [4], the Ratio Ki amounted to 0.01.
With `C=C1[C@H](O)CC(=C/C=C2\CCC[C@]3(C)[C@@H]([C@@H](C)CCCC(C)(C)O)CC[C@@H]23)C[C@H]1O`, the Ratio ED50 in assay [3] was found to be 29; in assay [5] it was 25. In assay [4], the Ratio Ki amounted to 1.
As for `C=C1[C@H](O)CC(=C/C=C2\CCC[C@]3(C)[C@@H]([C@@H](C)C(=C)CCCC(O)(CC)CC)CC[C@@H]23)C[C@H]1O`, the result in the assay with Rattus norvegicus [1], in the assay on Rattus norvegicus [2], in the assay on Rattus norvegicus [6] and with Rattus norvegicus [7] was Active. The values for the Ratio ED50 in assay [3] and in assay [5] were 6.7 and 50, respectively. For the same molecule, the Ratio Ki in assay [4] amounted to 0.5.
On to `C=C1[C@H](O)CC(=C/C=C2\CCC[C@]3(C)[C@@H]([C@@H](C)C(=C)CCCC(C)(C)O)CC[C@@H]23)C[C@H]1O`, for which the outcome in the assay with Rattus norvegicus [1], in the assay on Rattus norvegicus [2], in the assay with Rattus norvegicus [6] and in the assay with Rattus norvegicus [7] was Active. Moreover, the values for the Ratio ED50 in assay [3] and in assay [5] were 20 and 50, respectively. The Ratio Ki in assay [4] was determined as 1.
On to `C=C1[C@H](O)CC(=C/C=C2\CCC[C@]3(C)[C@@H]([C@@H](C)C(=C)CCC(O)(CC)CC)CC[C@@H]23)C[C@H]1O`, for which the result in the assay on Rattus norvegicus [1], in the assay on Rattus norvegicus [2], with Rattus norvegicus [6] and in the assay with Rattus norvegicus [7] was Active. Besides, the Ratio ED50 in assay [3] turned out to be 6.7; in assay [5], 10. Besides, the Ratio Ki in assay [4] was 1.
